According to patent US8153385B2, “Target protein and target gene in drug designing and screening method” (Reverse Proteomics Research Institute Co., Ltd., priority 2004, dated 2012):

Molecular target: T1, FLJ13397 clone-derived protein (CARP) (Homo sapiens, UniProt Q9H8M7)
T1 construct: A human full-length cDNA clone was expressed as a protein with an N-terminal His tag; His tag (pDEST17 Gateway vector) (N); made in house; host or cells: Escherichia coli BL21star(DE3)pLysS
T1 sequence (Q9H8M7 1-445): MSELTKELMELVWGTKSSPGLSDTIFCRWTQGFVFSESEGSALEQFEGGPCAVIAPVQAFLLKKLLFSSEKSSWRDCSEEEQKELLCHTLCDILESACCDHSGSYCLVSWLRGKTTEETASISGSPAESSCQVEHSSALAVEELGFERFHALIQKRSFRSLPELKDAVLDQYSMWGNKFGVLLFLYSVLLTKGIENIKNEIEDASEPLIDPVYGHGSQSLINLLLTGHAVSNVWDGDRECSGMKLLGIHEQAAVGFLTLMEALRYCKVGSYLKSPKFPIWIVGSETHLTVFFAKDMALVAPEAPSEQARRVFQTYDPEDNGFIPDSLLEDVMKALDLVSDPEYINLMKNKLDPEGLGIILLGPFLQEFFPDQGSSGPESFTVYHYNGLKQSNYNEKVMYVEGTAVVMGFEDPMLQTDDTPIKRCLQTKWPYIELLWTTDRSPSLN
Assay: SEC/MS (size exclusion chromatography / mass analysis) interaction analysis between FLJ13397 clone-derived protein and compounds
Type: binding
Description: BP-reaction was performed on human full-length cDNA clone and the cloning vector Gateway pDONR201 by the PCR cloning method using the Invitrogen Gateway system to yield an entry clone. LR-reaction was performed on this entry clone with the destination vector pDEST17 (Gateway System) and LR Clonase at 25° C. for 60 minutes to yield an expression plasmid. Escherichia coli competent cell BL21star(DE3)pLysS were transformed with this expression plasmid, a clone incorporating the expression vector was selected, and a frozen stock was prepared. The transformant was inoculated into LB medium and precultured, after which it was transferred into SB medium and cultured to induce the expression by IPTG, and the cells were stored frozen.
A human full-length cDNA clone was expressed as a protein with an N-terminal His tag. This clone was purified using BioRobot 8000 (Qiagen) or ACTA Crystal (Amersham). […] In the purification with ACTA Crystal, affinity purification using a HisTrap HP column was followed by gel filtration purification using the Gel Filtration Column HiLoad 16/60 or a 10/30 Superdex 75 prep grade column. The purified fraction was used for interaction analysis after being subjected to SDS-PAGE to verify the estimated molecular weight and purity.
To analyze the interactions between commonly used drugs and proteins expressed from human full-length cDNA clones while keeping both the proteins and the compounds in non-modified, non-immobilized state, size exclusion chromatography (SEC) and mass analysis were used in combination (FIGS. 1 and 2). The specific procedures are shown below.
The compound-protein mixture prepared in step 1 was subjected to chromatography using an SEC column, the compound and the protein were separated by SEC, and the bound compound or compound that interacted with the protein in the protein fraction was analyzed using a mass analyzer.
Protein concentrations were measured using BCA Protein Assay (PIERCE), in consideration of the purity calculated by SDS-PAGE.
Mass analysis was performed using LCQ DECA XP (Thermoelectron) or Q-TOFmicro (Micromass), equipped with an ESI probe. The LC pump used was Agilent 1100 (Yokogawa Analytical Systems), and the autosampler used was HTC-PAL (CTC Analytics) equipped with a cooling stacker.
In the SEC method using a 384-well spin column, Unifilter 100 (Whatman), packed with 10 μL (dry volume) of Bio-Gel P6 (BIO-RAD) and swollen with milliQ water, was used as the SEC column. […] The SEC spin column was mounted on an acetonitrile-aliquoted 384-well U-bottom plate and centrifuged; the SEC spin column filtrate, which is a protein fraction, was retrieved in 50% acetonitrile. The protein precipitate produced by the acetonitrile was removed via centrifugation and filtration for protein removal; the resulting filtrate was concentrated by centrifugation and re-dissolved in 10 μL of 50% methanol to obtain a mass analysis sample. The mobile phase supplied to the mass analyzer was 0.1% formic acid/50% methanol solution in the positive ion mode, and 0.1% ammonia/50% methanol solution in the negative ion mode; these mobile phases were used at a flow rate of 40 μL/min. 2-μL of mass analysis samples were injected using an autosampler at 2-Minute intervals; the mass spectral intensity of the compound was measured to obtain the spectral intensity of the pharmaceutical compound contained in the SEC spin column filtrate (protein fraction eluted from SEC).

[1] = compound 1 μM, protein 0 μM (protein-free reference)
[2] = compound 1 μM, protein 23.75 μM
[3] = compound 10 μM, protein 0 μM (protein-free reference)
[4] = compound 10 μM, protein 23.75 μM
[5] = compound 10 μM, protein 47.5 μM
[6] = compound 100 μM, protein 0 μM (protein-free reference)
[7] = compound 100 μM, protein 23.75 μM
[8] = compound 100 μM, protein 47.5 μM
[9] = compound 250 μM, protein 0 μM (protein-free reference)
[10] = compound 250 μM, protein 23.75 μM
[11] = compound 250 μM, protein 47.5 μM

| spectrum intensity of the extracted mass range (compound in SEC spin column filtrate) [1] | spectrum intensity of the extracted mass range (compound in SEC spin column filtrate) [2] | spectrum intensity of the extracted mass range (compound in SEC spin column filtrate) (compound 1 μM, protein 47.5 μM) | spectrum intensity of the extracted mass range (compound in SEC spin column filtrate) [3] | spectrum intensity of the extracted mass range (compound in SEC spin column filtrate) [4] | spectrum intensity of the extracted mass range (compound in SEC spin column filtrate) [5] | spectrum intensity of the extracted mass range (compound in SEC spin column filtrate) [6] | spectrum intensity of the extracted mass range (compound in SEC spin column filtrate) [7] | spectrum intensity of the extracted mass range (compound in SEC spin column filtrate) [8] | spectrum intensity of the extracted mass range (compound in SEC spin column filtrate) [9] | spectrum intensity of the extracted mass range (compound in SEC spin column filtrate) [10] | spectrum intensity of the extracted mass range (compound in SEC spin column filtrate) [11] | interaction with the FLJ13397-expressed protein (judgement) (judged from increase of spectrum intensity with doses of compound and protein) | SMILES |
| --- | --- | --- | --- | --- | --- | --- | --- | --- | --- | --- | --- | --- | --- |
| 5598524 | 1659600 | 2958392 | 4341825 | 4509110 | 7550402 | 12703620 | 32945929 | 42993061 | 39100216 | 125775631 | 559844 |  | Nc1nc2ccccc2n1Cc1ccccc1 [2-Amino-1-Benzylbenzimidazole, 2-Amino-1-benzylbenzimidazole] |
| 825049 | 360734 | 484482 | 1750199 | 1437041 | 1664928 | 36160236 | 53411123 | 52719227 | 91113992 | 98334673 | 159174682 |  | CCCS(=O)(=O)c1ccc2[nH]c(N)nc2c1 [2-Amino-5-N-Propylsulphonylbenzimidazole, 2-Amino-5-N-propylsulphonylbenzimidazole] |
| 276565 | 42562 | 152781 | 153479 | 69826 | 71963 | 437739 | 1819414 | 2080493 | 2837732 | 7370524 | 8155388 |  | Nc1nc2ccccc2[nH]1 [2-Aminobenzimidazole] |
| 1342766 | 1155288 | 761260 | 5960539 | 5481616 | 5089101 | 94575228 | 149841728 | 131428354 | 66281031 | 280956724 | 328407687 |  | CCCS(=O)(=O)c1ccc2nc(NC(=O)OC)[nH]c2c1 [Albendazole Sulfone] |
| 12239048 | 16006165 | 18099237 | 13557249 | 118520633 | 36678174 | 210085727 | 1213216132 | 2237504347 | 710392964 | 1027353172 | 2019252410 | concentration-dependent interaction | COc1ccc(CCN2CCC(Nc3nc4ccccc4n3Cc3ccc(F)cc3)CC2)cc1 [Astemizole] |
| 2459590 | 1627696 | 1328076 | 2937731 | 1321952 | 2620286 | 3881633 | 4636579 | 4337586 | 9545633 | 10439034 | 13446649 |  | c1ccc2[nH]cnc2c1 [Benzimidazole] |

| SMILES | spectrum intensity of the extracted mass range (compound in SEC spin column filtrate) [1] | spectrum intensity of the extracted mass range (compound in SEC spin column filtrate) [2] | spectrum intensity of the extracted mass range (compound in SEC spin column filtrate) (compound 1 μM, protein 47.5 μM) | spectrum intensity of the extracted mass range (compound in SEC spin column filtrate) [3] | spectrum intensity of the extracted mass range (compound in SEC spin column filtrate) [4] | spectrum intensity of the extracted mass range (compound in SEC spin column filtrate) [5] | spectrum intensity of the extracted mass range (compound in SEC spin column filtrate) [6] | spectrum intensity of the extracted mass range (compound in SEC spin column filtrate) [7] | spectrum intensity of the extracted mass range (compound in SEC spin column filtrate) [8] | spectrum intensity of the extracted mass range (compound in SEC spin column filtrate) [9] | spectrum intensity of the extracted mass range (compound in SEC spin column filtrate) [10] | spectrum intensity of the extracted mass range (compound in SEC spin column filtrate) [11] | interaction with the FLJ13397-expressed protein (judgement) (judged from increase of spectrum intensity with doses of compound and protein) |
| --- | --- | --- | --- | --- | --- | --- | --- | --- | --- | --- | --- | --- | --- |
| CCC[S+]([O-])c1ccc2[nH]c(NC(=O)OC)nc2c1 (stereo not shown) [Albendazole Sulfoxide] | 1514429 | 1280086 | 1361540 | 11869270 | 13449119 | 14241157 | 125971079 | 208777846 | 241218904 | 460535649 | 532900104 | 372564422 |  |
| CCCSc1ccc2nc(NC(=O)OC)[nH]c2c1 [Albendazole] | 99130 | 290428 | 247973 | 25263 | 1117765 | 603904 | 221630 | 6713076 | 3946588 | 151791 | 18185332 | 55508710 |  |
